Consider 3 compounds from article PMC11642940, “A New Demand for Improved Selectivity and Potency of Cyanine Dyes as Antiproliferative Agents Against Colorectal Cancer Cells” (Molecules, 2024).

In general, viability refers to a per cent measure of how many cells are alive, often set against a control. As usually defined, the IC50 is the concentration that gives 50% inhibition.

The nature of series [1]: MTT cell viability assay, NHDF. The class given is cell-based, human. The settings on record: human, normal human dermal fibroblasts (NHDF); 10 µM, 72 h, mean ± SD; read-out: cell viability percentage in relation to control, NHDF. On the technique in general: Formazan colour is commonly taken as a measure of viable cells.
Experimental: (§4) The cell lines used in this study (Caco-2, MCF-7, PC-3, and NHDF) were obtained from the American Type Culture Collection (ATCC, Manassas, VA, USA) and cultured in 75 cm^2 culture flasks at 37 °C in a humidified atmosphere with 5% CO2 in a LEEC Culture Safe Precision CO2 Incubator. PC-3 cells were grown in Roswell Park Memorial Institute (RPMI) medium supplemented with 10% of inactivated Fetal Bovine Serum (FBS) and 1% of an antibiotic mixture (Sp; 10,000 U/mL of penicillin G and 100 mg/mL of streptomycin). MCF-7 and Caco-2 cell lines were both cultured using Dulbecco’s Modified Eagle Medium (DMEM). However, the medium for MCF-7 cells was complemented with 10% of inactivated FBS and 1% of antibiotic/antimycotic mixture (Ab; 10,000 U/mL of penicillin G, 100 mg/mL of streptomycin and 25 µg/mL of amphotericin B), and the medium for Caco-2 cells was supplemented with 20% of inactivated FBS and 1% of Sp. Finally, RPMI medium supplemented with 10% FBS, 2 mM of L-glutamine, 10 mM of 4-(2-hydroxyethyl)-1-piperazineethanesulfonic acid (HEPES), 1 mM of sodium pyruvate, and 1% of Ab was used to culture NHDF cells. The culture media were renewed every two to three days until near confluence was achieved. Then, cells were detached using a solution of 0.125 g/L of trypsin and 0.02 g/L of ethylenediaminetetracetic acid (EDTA), counted by the trypan blue method, resuspended, and adequately seeded to continue the culture in 75 cm^2 flasks or for the experiments described below. All manipulations were performed in a Labculture Class II A2 Biological Safety Cabinet.
Series [2] relates to normal human dermal fibroblasts (NHDF). Nature of the series: MTT cell viability assay, NHDF. Format: cell-based. The settings on record: Homo sapiens; NHDF, 72 h incubation, MTT, absence of light; read-out: IC50 NHDF.
Experimental: as §4
Series [3] in a line: MTT cell viability assay, Caco-2. The settings on record: human. As to the method:
(§1) To evaluate the anticancer potential of monomethine cyanine dyes 1–12, a cell proliferation study was conducted using the 3-(4,5-dimethylthiazol-2-yl)-2,5-diphenyltetrazolium bromide (MTT) assay. For this preliminary evaluation, a concentration of 10 µM for each dye was tested, with the well-established chemotherapy agent 5-fluorouracil (5-FU) serving as a positive control. The assay included normal human dermal fibroblasts (NHDF) as non-tumor cells, alongside tumor cell lines from colorectal (Caco-2), prostate (PC-3), and breast (MCF-7) adenocarcinomas.
(§2) The cell lines used in this study (Caco-2, MCF-7, PC-3, and NHDF) were obtained from the American Type Culture Collection (ATCC, Manassas, VA, USA) and cultured in 75 cm^2 culture flasks at 37 °C in a humidified atmosphere with 5% CO2 in a LEEC Culture Safe Precision CO2 Incubator. PC-3 cells were grown in Roswell Park Memorial Institute (RPMI) medium supplemented with 10% of inactivated Fetal Bovine Serum (FBS) and 1% of an antibiotic mixture (Sp; 10,000 U/mL of penicillin G and […] of streptomycin). MCF-7 and Caco-2 cell lines were both cultured using Dulbecco’s Modified Eagle Medium (DMEM). However, the medium for MCF-7 cells was complemented with 10% of inactivated FBS and 1% of antibiotic/antimycotic mixture (Ab; 10,000 U/mL of penicillin G, […] of streptomycin and 25 µg/mL of amphotericin B), and the medium for Caco-2 cells was supplemented with 20% of inactivated FBS and 1% of Sp. Finally, RPMI medium supplemented with 10% FBS, 2 mM of L-glutamine, 10 mM of 4-(2-hydroxyethyl)-1-piperazineethanesulfonic acid (HEPES), 1 mM of sodium pyruvate, and 1% of Ab was used to culture NHDF cells. The culture media were renewed every two to three days until near confluence was achieved. Then, cells were detached using a solution of 0.125 g/L of trypsin and 0.02 g/L of ethylenediaminetetracetic acid (EDTA), counted by the trypan blue method, resuspended, and adequately seeded to continue the culture in 75 cm^2 flasks or for the experiments described below. All manipulations were performed in a Labculture Class II A2 Biological Safety Cabinet.
(§3) After trypsinization, cells were seeded in 96-well culture plates (100 µL; 2 × 10^4 cells/mL), and after 48 h (for adherence), they were incubated with the compounds under study in the absence of light for a duration of 72 h. Then, the medium was removed, and fresh incomplete culture medium (without FBS and Ab or Sp) and MTT solution [5 mg/mL in phosphate buffer saline (PBS)] were added to each well, followed by 4 h of incubation. After this, the medium containing MTT was removed and DMSO was added to dissolve formazan crystals. The absorbance of each well at 570 nm was determined using a microplate spectrophotometer Bio-Rad (Hercules, CA, USA) xMark. Untreated cells were considered the negative control, and 5-FU, a clinically used drug, was considered the positive control. For data analysis, the relative cell proliferation relative to the negative control cells was calculated. For each cell viability study, at least two independent assays in quadruplicate were performed. Increasing concentrations of the compounds between 0.001 and 100 μM were used to determine the IC50 values.

Series [4] has as its system Caco-2 colorectal adenocarcinoma cells. Description: MTT cell viability assay, Caco-2. The settings on record: for SI Caco-2 (selectivity index, cancer versus non-cancer cell line NHDF): Caco-2 versus NHDF, 72 h; for IC50 / viability at 10 µM: Homo sapiens, Caco-2, 72 h; for IC50: read-out: IC50 Caco-2; for viability at 10 µM: read-out: cell viability percentage in relation to control, Caco-2. The protocol: as §1, §2, §3

Series [5] has as its system PC-3 prostate adenocarcinoma cells. Nature of the series: MTT cell viability assay, PC-3. The settings on record: 72 h; for IC50 / viability at 10 µM: Homo sapiens; for viability at 10 µM: read-out: cell viability percentage in relation to control, PC-3; for SI PC-3 (selectivity index versus NHDF): PC-3 versus NHDF. As to the method:
as §1, §2, §3

A further series has as its system Caco-2 cells. Nature of the series: Cell cycle distribution by PI staining and flow cytometry. Format: cell-based, human. As to the method: After excluding sub-G1 events, we proceeded to evaluate the impact of dyes 5 and 10 on cell cycle distribution.
Apoptosis (sub-G1 events) and cell cycle distribution were evaluated by propidium iodide (PI) staining and flow cytometry, as described by Riccardi and Nicolleti. After 48 h of Caco-2 cells (2 mL; 3 × 10^4 cells/mL) adherence in 6-well plates, the culture medium was substituted with the test solutions (3 mL and 5 mL for negative control) and incubated for a further 72 or 120 h. Untreated cells were used as the negative control, and sorbitol and 5-FU were used as positive controls. After incubation, the supernatant was collected in a centrifuge tube, cells were washed with PBS, trypsinized and wells were once again washed with PBS. This cell suspension was maintained on ice, centrifugated at 300 g for 5 min, and then the pellet was resuspended in 0.5 mL of PBS. Cells were fixed by adding 4.5 mL of 70% ethanol cooled at −20 °C on ice and were stored at −20 °C for a period ranging from one to a few days. On the day of flow cytometry analysis, PBS was added to the fixed cell tubes, followed by centrifugation and removal of the supernatant. The pellet was resuspended in 0.5 mL of PBS and 0.5 mL of DNA extraction solution (192 mL of 0.2 M sodium phosphate and 8 mL of 0.1% Triton X-100, pH 7.8). After incubation for 5 min, the cells were once again centrifuged, the supernatant was removed, and the pellet was resuspended in 0.3 mL of staining solution (20 µg/mL of PI and 0.2 mg/mL of DNase-free RNase in PBS). Using a FACSCalibur flow cytometer (Becton Dickinson, Franklin Lakes, NJ, USA) with a 488 nm laser line, a minimum of 20,000 events were acquired and recorded using the BD CellQuestTM Pro 4.0.2 software, and analyzed with FlowJo 10.5.3 software. To exclude debris and necrotic cells, events with a lower diameter (forward scatter; FCS) and PI fluorescence (FL3) than the hypodiploid apoptotic cells were eliminated (Figures S1 and S2). Two independent experiments were performed. A Student’s t-test was performed to evaluate the statistical significance of the results.
Background: Flow cytometry measures light scatter and fluorescence of single cells or particles in a stream.

Where [6] appears, read: Caco-2, SI Caco-2 (selectivity index, cancer versus non-cancer cell line NHDF), Caco-2 versus NHDF, 72 h.
The mark [7] stands for this setting: read-out: IC50 PC-3, PC-3, 72 h incubation, MTT.

Where two headings read alike, the source gives them in different places.

As for `CCN1C(=Cc2sc3cc([N+](=O)[O-])ccc3[n+]2CC)Sc2ccccc21.Cc1ccc(S(=O)(=O)[O-])cc1` [Dye 10, 3-Ethyl-2-((3-ethylbenzo[d]thiazol-2(3H)-ylidene)methyl)-6-nitrobenzo[d]thiazol-3-ium 4-methylbenzenesulfonate], in series [1], the viability at 72 h, 10 µM is 34.3 ± 1.99%. Besides, the IC50 in series [2] was 22400 nM. The selectivity ratio at 72 h in series [3] (setting [6]) is 151. Also, in series [4], the “SI Caco-2 (selectivity index, cancer versus non-cancer cell line NHDF)” value turned out to be 151.4; the IC50 amounted to 140 nM; the viability at 10 µM was 18.6 ± 0.65%. Moreover, in series [5] (setting [7]), the IC50 was 5930 nM. In series [5], the viability at 10 µM turned out to be 14.4 ± 1.6% and the “SI PC-3 (selectivity index versus NHDF)” value turned out to be 3.8. In the series with Caco-2 cells (Caco-2, 10 µM, 72 h), the “proportion of cells in G0/G1 phase” value is given as “approximately 62.0%” and the “proportion of cells in G2/M phase” value is given as 6.6%.
In the case of `CN1C(=Cc2oc3ccccc3[n+]2C)C=Cc2ccccc21.Cc1ccc(S(=O)(=O)[O-])cc1` [Dye 5, 3-Methyl-2-((1-methylquinolin-2(1H)-ylidene)methyl)benzo[d]oxazol-3-ium 4-methylbenzenesulfonate], the viability at 72 h, 10 µM in series [1] was 15.4 ± 1.82%. In series [2], the IC50 is 2790 nM. The selectivity ratio at 72 h in series [3] (setting [6]) was 278. Further, in series [4], the “SI Caco-2 (selectivity index, cancer versus non-cancer cell line NHDF)” value came to 278.3; the IC50 came out at 10 nM; the viability at 10 µM turned out to be 5.05 ± 0.19%. Besides, the IC50 in series [5] (setting [7]) stood at 1430 nM. Besides, in series [5], the viability at 10 µM turned out to be 3.47 ± 0.95% and the “SI PC-3 (selectivity index versus NHDF)” value stood at 1.9. Further, the “effect on cell cycle distribution” value with Caco-2 cells (Caco-2, 1 µM, 72 and 120 h) is listed as “did not significantly alter the cell cycle distribution”.
On to `O=c1[nH]cc(F)c(=O)[nH]1` [5-FU, 5-fluorouracil, reference compound], for which the viability at 72 h, 10 µM in series [1] is 10.5 ± 0.74%. For the same compound, the IC50 in series [2] came out at 4530 nM. In addition, the selectivity ratio at 72 h in series [3] (Caco-2) was 4.1. Besides, in series [4], the IC50 was found to be 1110 nM and the viability at 10 µM was 30.1 ± 1.24%. The IC50 in series [5] (read-out: IC50 PC-3) stood at 2430 nM. In addition, in series [5], the viability at 10 µM stood at 20.5 ± 2.3% and the “SI PC-3 (selectivity index versus NHDF)” value is reported as 1.9. Further, in the series on Caco-2 cells (Caco-2, 10 µM, 72 h), the “proportion of cells in G0/G1 phase” value amounted to 10.1% and the “proportion of cells in S phase” value is recorded as “around 80.3%”.
